Experimental data published in PMC12483151, “Late-Stage Functionalization of Lysine to Organelle-Targeting Fluorescent Probes” (JACS Au, 2025).
Several values for one entry are separate records, joined by “and”; a condition that tells them apart may be missing. Identical values can stand only once. Where a SMILES comes first, the peptide text is derived from it.

Assays:
[1] = tested on: E. coli; details: MHB, 37 °C, 18 h, OD600; for Discrete-well MIC (CLSI definition, two-fold dilutions): E. coli ~5 x 10^5 CFU/mL, lowest concentration with ≤ 10 % growth; for Extrapolated (interpolated) MIC (4-parameter logistic fit): E. coli, concentration at 10 % growth by curve fit
Method: Plates were sealed and incubated
(1 picture or pasted object on this page, not shown here)

[2] = tested on: T-47D cells
[3] = tested on: T-47D cells; experiment: Mitochondrial colocalization imaging with MitoTracker Red; assay type: cell-based, Human; details: T-47D live cells
Method: Cells were plated in an IBIDI 8-well glass bottom chamber at a density of 25,000 cells per well in media and allowed to adhere overnight at 37 °C, 5% CO2. Fresh 10 mM stock solutions of probes were prepared in DMSO on the day of experimentation. Working solutions of all compounds in media were prepared on the day of experimentation. Culture media was removed from the wells, and 200 mL of 100 nM probe was added to the desired wells and placed in an incubator for 30 min. Media was removed from the wells, and 200 mL of 100 nM MitroTracker-Red FM (ThermoFisher, M22425) was added to the desired wells and placed in an incubator for 15 min. Staining media was removed, and cells were washed with 200 μL of PBS for 5 min (repeated 3 times). PBS was removed and replaced with 200 mL of fresh medium, followed by immediate imaging. Five images were captured for each well. Colocalization analysis for Pearson’s R (R) and Mander’s Colocalization Coefficient (MCC) was conducted using the EzColocalization Plugin for ImageJ.
Colocalization studies – EzColocalization Details. Co-localization studies were done using
EzColocalization. EzColocalization is an ImageJ Application Program Interface (APIs)-an open-source
plugin, where individual cells can be highlighted and colocalization studies can be run across three
channels. The metric matrix for TOS (linear scaling) in the heatmap quantifies colocalization. FT […]

## COc1ccc(C(=O)c2c(-c3ccc(OC)cc3)cc(-c3ccc(OC)cc3)[n+](CCCC[C@H](NC(C)=O)C(=O)N[C@@H](CCCNC(=N)N)C(=O)N[C@@H](Cc3c[nH]c4ccccc34)C(=O)N[C@@H](CCCNC(=N)N)C(=O)N[C@@H](Cc3c[nH]c4ccccc34)C(N)=O)c2-c2ccc(OC)cc2)cc1 [5g]
[1]
  Discrete-well MIC (CLSI definition, two-fold dilutions): 125 µM
  Extrapolated (interpolated) MIC (4-parameter logistic fit): 0.0715 mM and 0.072 ± 0.01 mM

## COc1ccc(C(=O)c2c(-c3ccc(OC)cc3)cc(-c3ccc(OC)cc3)[n+](CCCC[C@H](NC(=O)[C@H](CC(=O)O)NC(=O)[C@H](CC(C)C)NC(C)=O)C(=O)N[C@H](C(=O)N[C@@H](CC(N)=O)C(=O)N[C@@H](CCCNC(=N)N)C(N)=O)C(C)C)c2-c2ccc(OC)cc2)cc1 [5b]
[2]; 100 nM, 1 h, Annexin V/PI, n = 3 biological replicates, one average given for 4f and 5b
  Percentage cell death (average): 4.6%

## CC(=O)N[C@@H](CCCCN)C(=O)N[C@@H](CCCNC(=N)N)C(=O)N[C@@H](Cc1c[nH]c2ccccc12)C(=O)N[C@@H](CCCNC(=N)N)C(=O)N[C@@H](Cc1c[nH]c2ccccc12)C(N)=O [2g] (Ac-KRWRW-NH2)
[1]
  Discrete-well MIC (CLSI definition, two-fold dilutions): 125 µM
  Extrapolated (interpolated) MIC (4-parameter logistic fit): 0.0693 mM and 0.069 ± 0.06 mM

## COc1cccc2c1C(=O)c1c(O)c3c(c(O)c1C2=O)C[C@@](O)(C(=O)CO)C[C@@H]3O[C@H]1C[C@H](N)[C@H](O)[C@H](C)O1 [Dox, doxorubicin]
[3]; 100 nM probe, 100 nM MitoTracker Red, EzColocalization/ImageJ, 1 = perfect colocalization, -1 = none
  Pearson's coefficient (colocalization with MitoTracker Red): 0.397
[3]; 100 nM, co-stained with MitoTracker Red
  subcellular localization: primarily colocalized with the nucleus
[2]; 100 nM, 1 h, Annexin V/PI, n = 3 biological replicates
  survival less than DOX-Py: 20%
[2]; Annexin V/PI flow cytometry (100 nM, 1 h per Figure S25)
  survival rate: 40%
